What is called EC50 is the concentration needed to bring the measured effect to its halfway point.

Test [1] is described as follows: Effect on CRE-luciferase activity in TGR5 non-expressing HEK293-A cells transfected with EPAC-based FRET biosensor assessed as fold activation at 30 uM incubated for 18 hrs by spectrophotometric analysis relative to control. It counts as functional, Homo sapiens.
The nature of test [2]: Effect on cAMP accumulation in non-TGR5 expressing HEK293-A cells transfected with EPAC-based FRET biosensor at 30 uM incubated for 10 mins in presence of IBMX and roflumilast by fluorescence based photometry relative to control. The test is classed as functional, Homo sapiens. (Cyclic AMP is a second messenger, typically raised through Gs and lowered through Gi signalling.)

Test [3] deals with T1, G-protein coupled bile acid receptor 1 (Homo sapiens) (UniProt Q8TDU6).
T1 sequence (whole entry): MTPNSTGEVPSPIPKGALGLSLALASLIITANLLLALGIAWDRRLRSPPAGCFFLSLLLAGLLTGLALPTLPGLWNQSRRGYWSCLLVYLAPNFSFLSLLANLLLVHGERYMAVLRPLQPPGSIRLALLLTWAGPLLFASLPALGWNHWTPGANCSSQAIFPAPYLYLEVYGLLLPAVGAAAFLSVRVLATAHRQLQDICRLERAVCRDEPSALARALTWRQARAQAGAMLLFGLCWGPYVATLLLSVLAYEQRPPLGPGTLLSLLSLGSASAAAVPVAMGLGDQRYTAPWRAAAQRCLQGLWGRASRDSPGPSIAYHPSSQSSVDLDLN
As to the kind of experiment: (§1) Agonist activity at human TGR5 expressed in HEK293-A cells co-transfected with EPAC-based FRET biosensor incubated for 18 hrs by CRE-luciferase reporter gene assay. The test is classed as functional, cell-based. Particulars: filed as agonist.

Test [4] addresses T2, G-protein coupled bile acid receptor 1 (Homo sapiens, UniProt Q8TDU6).
T2 sequence (Q8TDU6 whole entry): T1 sequence (whole entry)
Described as §1. The test is classed as functional, cell-based.

Test [5] concerns the target T2, G-protein coupled bile acid receptor 1. Put plainly: Agonist activity at human TGR5 expressed in HEK293-A cells co-transfected with EPAC-based FRET biosensor assessed as increase in cAMP accumulation incubated for 10 mins by spectrophotometry. The test is classed as functional, cell-based.

Regarding `CC1(C)c2ccccc2CCN1CC(=O)NC[C@@H]1Cc2ccccc2O1`, the “fold change (FC)” value in test [1] worked out at 0.82. The Activity in test [2] is 103.7%; in test [3], “Dose-Dependent Effect”. Further, the EC50 stood at 19 µM in test [4] and 30 µM in test [5].
Turning to `c1cc(CNC2CC2)cc(-c2cccc3cccnc23)c1`, the “fold change (FC)” value in test [1] turned out to be 1.22. Further, in test [2], the Activity came to 105.3%.
For `c1ccc(-n2cccc2CNC2CCCN(C3Cc4ccccc4C3)C2)nc1` (stereo not drawn), in that order: 1.44 and 104%.
For `Cc1cc(S(=O)(=O)NCCn2ccnc2C2CC2)c(Cl)cc1Cl`, in that order: 0.96 and 103.9%.
For `Cc1ccc(CCCNC(=O)NCc2cn3c(C)cccc3n2)c(C)c1`, the “fold change (FC)” value in test [1] came out at 0.87.
Regarding `CO[C@@H](CNC(=O)CCc1cc2cc(Br)ccc2s1)Cc1ccccc1`, the “fold change (FC)” value in test [1] stood at 0.75. For the same compound, the Activity in test [2] is 106.4%; in test [3], “Dose-Dependent Effect”.
The matching figures for `CC(C)c1ccccc1OCCC(=O)NC[C@@H]1Cc2ccccc21`: 0.57, 107.1% and “Dose-Dependent Effect”.
